The values below come from patent US8748412B2, “Phenylalanine derivatives and their use as non-peptide GLP-1 receptor modulators” (Argusina Bioscience Inc., priority 2011, dated 2014).

The target in one assay is T1, human GLP1R (Homo sapiens, UniProt P43220).
T1 construct: expressed in transfected cells; host or cells: CHO cells (ATCC), transient transfection with pCMV-human GLP1R
T1 sequence (P43220 24-463): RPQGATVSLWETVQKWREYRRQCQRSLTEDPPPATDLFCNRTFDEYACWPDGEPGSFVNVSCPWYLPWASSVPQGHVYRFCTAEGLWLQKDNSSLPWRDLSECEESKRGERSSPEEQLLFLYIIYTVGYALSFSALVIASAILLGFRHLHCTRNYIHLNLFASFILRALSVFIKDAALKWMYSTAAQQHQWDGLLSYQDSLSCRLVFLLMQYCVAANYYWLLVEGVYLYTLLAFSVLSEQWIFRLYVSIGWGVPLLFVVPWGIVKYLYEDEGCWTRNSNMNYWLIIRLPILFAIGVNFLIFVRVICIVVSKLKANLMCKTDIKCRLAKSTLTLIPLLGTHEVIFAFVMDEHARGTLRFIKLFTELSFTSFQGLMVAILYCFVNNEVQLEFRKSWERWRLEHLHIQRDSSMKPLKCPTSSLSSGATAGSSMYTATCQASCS
The assay can be described thus: Human GLP-1 receptor transfected cell assay (MRE/CRE-luciferase reporter gene, agonist activity). Format: cell-based. The note with it: 6 h; concentration 1 μM; read-out: Activity (agonist), percentage of the activity of the control. The essentials: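 CHO cells transiently co-transfected with human GLP1R and MRE/CRE-driven luciferase reporter plasmids. Compound or GLP-1 (7-36 amide) standard dilution series added for 6 h at 37 °C, 5% CO2. Agonist activity read as Bright-Glo luciferase luminescence.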
On the technique in general: In a reporter assay the amount or activity of a reporter protein is the signal.
On to `CC(C)(C)OC(=O)Nc1ccc(-c2nc(-c3ccc(C[C@@H](NC(=O)c4ccc(-c5ccc(C6CC6)cc5)o4)C(=O)O)cc3F)no2)cc1` [Compound 6G], for which the activation at 1 µM is 40 to 60%. On the same count and under the same terms, as for `Cc1ccc(-c2cccc(C(=O)N[C@H](Cc3ccc(-c4noc(-c5ccc(NC(=O)OC(C)(C)C)cc5)n4)c(F)c3)C(=O)O)c2)cc1F` [Compound 6L], the figure is 20 to 40%; as for `CC(C)Oc1ccc(-c2ccc(C(=O)N[C@H](Cc3ccc(-c4noc(-c5ccc(NC(=O)OC(C)(C)C)cc5)n4)c(F)c3)C(=O)O)o2)cc1F` [Compound 6O], 20 to 40%.

Take `CC(C)(C)OC(=O)Nc1ccc(-c2nc(-c3ccc(C[C@@H](NC(=O)c4cccc(-c5ccccc5F)c4)C(=O)O)cc3F)no2)cc1` [Compound 6P]: the activation at 1 µM lay in the range of 40 to 60%. On the same count and under the same terms, to `Cc1ccc(-c2ccc(C(=O)N[C@H](Cc3ccc(-c4noc(-c5ccc(NC(=O)OC(C)(C)C)cc5)n4)cn3)C(=O)O)o2)cc1` [Compound 6Q] belongs 40 to 60%; to `Cc1ccc(-c2ccc(C(=O)N[C@H](Cc3ccc(-c4noc(-c5ccc(NC(=O)OC(C)(C)C)cc5)n4)c(C)c3)C(=O)O)o2)cc1` [Compound 6R], more than 60%. As for `Cc1cc(C[C@@H](NC(=O)c2ccc(-c3ccc(Cl)cc3F)o2)C(=O)O)ccc1-c1noc(-c2ccc(NC(=O)OC(C)(C)C)cc2)n1` [Compound 6S], the activation at 1 µM lay in the range of 20 to 40%. Still for that read-out and setting: to `CC(C)(C)OC(=O)Nc1ccc(-c2nc(-c3ccc(C[C@@H](NC(=O)c4cccc(C#CC5CC5)c4)C(=O)O)cc3F)no2)cc1` [Compound 6T] belongs 20 to 40%; to `CC(C)c1ccc(-c2ccc(C(=O)N[C@H](Cc3ccc(F)c(-c4noc(-c5ccc(NC(=O)OC(C)(C)C)cc5)n4)c3)C(=O)O)o2)cc1` [Compound 6V], 20 to 40%; to `Cc1ccc(-c2ccc(C(=O)N[C@H](Cc3cc(Br)cc(-c4noc(-c5ccc(NC(=O)OC(C)(C)C)cc5)n4)c3)C(=O)O)o2)cc1` [Compound 6Y], more than 60%. On the same count and under the same terms, as for `Cc1ccc(-c2ccc(C(=O)N[C@H](Cc3ccc(C)c(-c4noc(-c5ccc(NC(=O)OC(C)(C)C)cc5)n4)c3)C(=O)O)o2)cc1` [Compound 6Z], the figure is 40 to 60%; as for `Cc1ccc(-c2ccc(C(=O)NC(Cc3cc(F)cc(C#Cc4ccc(NC(=O)OC(C)(C)C)cc4)c3)C(=O)O)o2)cc1` (stereo not shown) [Compound 7E], more than 60%; as for `Cc1cc(-c2ccc(C(=O)N[C@H](Cc3ccc(-c4noc(-c5ccc(NC(=O)OC(C)(C)C)cc5)n4)c(F)c3)C(=O)O)o2)ccc1F` [Compound 9E], more than 60%.

The same assay, now with this note: 6 h; concentration 3 μM; read-out: Activity (agonist), percentage of the activity of the control.
As for `CC(C)c1ccc(-c2cccc(C(=O)N[C@H](Cc3ccc(-c4noc(-c5ccc(NC(=O)OC(C)(C)C)cc5)n4)c(F)c3)C(=O)O)c2)cc1` [Compound 6D], the activation at 3 µM is 20 to 40%. Regarding `Cc1ccc(-c2cccc(C(=O)N[C@H](Cc3ccc(-c4noc(-c5ccc(NC(=O)OC(C)(C)C)cc5)n4)c(F)c3)C(=O)O)c2)o1` [Compound 6I], the activation at 3 µM lay in the range of 20 to 40%. On the same count and under the same terms, to `CC(C)Oc1ccc(-c2ccc(C(=O)N[C@H](Cc3ccc(-c4noc(-c5ccc(NC(=O)OC(C)(C)C)cc5)n4)c(F)c3)C(=O)O)o2)cc1` [Compound 6N] belongs 40 to 60%. `Cc1csc(-c2cccc(C(=O)N[C@H](Cc3ccc(-c4noc(-c5ccc(NC(=O)OC(C)(C)C)cc5)n4)c(F)c3)C(=O)O)c2)c1` [Compound 6U]: the activation at 3 µM was in the range of 40 to 60%.

Consider `COc1ccc(C[C@@H](NC(=O)c2ccc(-c3ccc(C)cc3)o2)C(=O)O)cc1-c1noc(-c2ccc(NC(=O)OC(C)(C)C)cc2)n1` [Compound 6W], for which the activation at 3 µM was in the range of 20 to 40%. Same read-out and setting: as for `Cc1ccc(-c2ccc(C(=O)N[C@H](Cc3cc(F)cc(-c4noc(-c5ccc(NC(=O)OC(C)(C)C)cc5)n4)c3)C(=O)O)o2)cc1` [Compound 6X], the figure is 40 to 60%; as for `Cc1ccc(-c2cccc(C(=O)N[C@@H](Cc3ccc(-c4noc(-c5ccc(NC(=O)OC(C)(C)C)cc5)n4)c(F)c3)C(=O)O)c2)cc1` [Compound 8E], more than 60%.

The assay is the same for the next values; noted with them: 6 h; concentration 3.16 μM; read-out: Activity (agonist), percentage of the activity of the control.
Turning to `CC(C)c1ccc(-c2ccc(C(=O)N[C@H](Cc3ccc(-c4noc(-c5ccc(NC(=O)OC(C)(C)C)cc5)n4)c(F)c3)C(=O)O)o2)cc1` [Compound 6B], the activation at 3.16 µM lay within 40 to 60%.

As to `Cc1ccc(-c2ccc(C(=O)NC(Cc3ccc(F)c(C#Cc4ccc(NC(=O)OC(C)(C)C)cc4)c3)C(=O)O)o2)cc1` (stereo not shown) [Compound 6E], the activation at 3.16 µM is more than 60%.

For `Cc1ccc(-c2cccc(C(=O)N[C@H](Cc3ccc(-c4noc(-c5ccc(NC(=O)OC(C)(C)C)cc5)n4)c(F)c3)C(=O)O)c2)cc1Cl` [Compound 6H], the activation at 3.16 µM is more than 60%.

The assay is the same for the next values; noted with them: 6 h; concentration 10 μM; read-out: Activity (agonist), percentage of the activity of the control.
In the case of `Cc1ccc(-c2ccc(C(=O)NC(Cc3ccc(NC(=O)c4cccc(Br)c4)c(F)c3)C(=O)O)o2)cc1` (stereo not shown) [Compound 5S], the activation at 10 µM is more than 60%.

Turning to `Cc1ccc(-c2ccc(C(=O)N[C@H](Cc3ccc(/C=C/c4ccc(NC(=O)OC(C)(C)C)cc4)c(F)c3)C(=O)O)o2)cc1` [Compound 5T], the activation at 10 µM is more than 60%.

For `Cc1ccc(-c2cccc(C(=O)NC(Cc3ccc(-c4noc(C(=O)N5CCC(C)CC5)n4)c(F)c3)C(=O)O)c2)cc1` (stereo not shown) [Compound 5U], the activation at 10 µM is more than 60%. Same read-out and setting: to `COc1cc2c(cc1OC(=O)c1ccc(NC(=O)OC(C)(C)C)cc1)CN(S(=O)(=O)c1ccc(C)cc1)C(C(=O)O)C2` (stereo not shown) [Compound 5V] belongs more than 60%; to `COc1cc2c(cc1OC(=O)c1ccc(NC(=O)OC(C)(C)C)cc1)CN(C(=O)c1ccc(-c3ccc(C)cc3)o1)C(C(=O)O)C2` (stereo not shown) [Compound 5W], more than 60%; to `CC(C)(C)OC(=O)Nc1ccc(C(=O)Oc2ccc3c(c2)CN(C(=O)c2ccc(NC(=O)OC(C)(C)C)cc2)C(C(=O)O)C3)cc1` (stereo not shown) [Compound 5X], more than 60%.

Turning to `Cc1ccc(S(=O)(=O)N2Cc3cc(OC(=O)c4ccc(NC(=O)OC(C)(C)C)cc4)ccc3CC2C(=O)O)cc1F` (stereo not shown) [Compound 5Y], the activation at 10 µM was more than 60%. Regarding `Cc1ccc(-c2ccc(C(=O)NC3(C(=O)O)Cc4ccc(-c5noc(-c6ccc(NC(=O)OC(C)(C)C)cc6)n5)cc4C3)o2)cc1` (stereo not shown) [Compound 5Z], the activation at 10 µM is more than 60%. As to `CC(C)(C)OC(=O)Nc1ccc(-c2nc(-c3ccc(C[C@@H](NC(=O)c4cccc(-c5ccc(Cl)cc5)c4)C(=O)O)cc3F)no2)cc1` [Compound 6A], the activation at 10 µM is more than 60%. Same read-out and setting: as for `CC(C)(C)OC(=O)Nc1ccc(-c2nc(-c3ccc(C[C@@H](NC(=O)c4cccc(-c5ccc(Cl)cc5F)c4)C(=O)O)cc3F)no2)cc1` [Compound 6C], the figure is more than 60%; as for `CC(C)(C)OC(=O)Nc1ccc(-c2nc(-c3ccc(C[C@@H](NC(=O)c4cccc(-c5ccc(Cl)c(F)c5)c4)C(=O)O)cc3F)no2)cc1` [Compound 6F], more than 60%; as for `Cc1ccc(-c2cccc(C(=O)N[C@H](Cc3ccc(-c4noc(-c5ccc(NC(=O)OC(C)(C)C)cc5)n4)c(F)c3)C(=O)O)c2)s1` [Compound 6J], more than 60%. With `CC(C)Oc1ccc(-c2cccc(C(=O)N[C@H](Cc3ccc(-c4noc(-c5ccc(NC(=O)OC(C)(C)C)cc5)n4)c(F)c3)C(=O)O)c2)cc1` [Compound 6K], the activation at 10 µM is more than 60%. For `COc1ccc(C#CC(=O)N[C@H](Cc2ccc(-c3noc(-c4ccc(NC(=O)OC(C)(C)C)cc4)n3)c(F)c2)C(=O)O)cc1` [Compound 6M], the activation at 10 µM fell in the range of 20 to 40%.
